In assay [1] the target is Protein kinase C alpha type (Homo sapiens) (UniProt P17252). The experiment in a line: Inhibition of human truncated PKC alpha expressed in baculovirus assessed as substrate phosphorylation using fluorescence-labelled peptides as substrate at 0.2 uM after 90 mins by microfluidic peptide phosphorylation assay.
Assay [2] deals with Receptor-type tyrosine-protein kinase FLT3 (Homo sapiens) (UniProt P36888). The experiment in a line: Inhibition of human FLT3 catalytic domain expressed in baculovirus assessed as substrate phosphorylation using fluorescence-labelled peptides as substrate at 0.1 uM after 90 mins by microfluidic peptide phosphorylation assay.
Chain of Receptor-type tyrosine-protein kinase FLT3 (Homo sapiens) (P36888 whole entry, the tested form may be a part): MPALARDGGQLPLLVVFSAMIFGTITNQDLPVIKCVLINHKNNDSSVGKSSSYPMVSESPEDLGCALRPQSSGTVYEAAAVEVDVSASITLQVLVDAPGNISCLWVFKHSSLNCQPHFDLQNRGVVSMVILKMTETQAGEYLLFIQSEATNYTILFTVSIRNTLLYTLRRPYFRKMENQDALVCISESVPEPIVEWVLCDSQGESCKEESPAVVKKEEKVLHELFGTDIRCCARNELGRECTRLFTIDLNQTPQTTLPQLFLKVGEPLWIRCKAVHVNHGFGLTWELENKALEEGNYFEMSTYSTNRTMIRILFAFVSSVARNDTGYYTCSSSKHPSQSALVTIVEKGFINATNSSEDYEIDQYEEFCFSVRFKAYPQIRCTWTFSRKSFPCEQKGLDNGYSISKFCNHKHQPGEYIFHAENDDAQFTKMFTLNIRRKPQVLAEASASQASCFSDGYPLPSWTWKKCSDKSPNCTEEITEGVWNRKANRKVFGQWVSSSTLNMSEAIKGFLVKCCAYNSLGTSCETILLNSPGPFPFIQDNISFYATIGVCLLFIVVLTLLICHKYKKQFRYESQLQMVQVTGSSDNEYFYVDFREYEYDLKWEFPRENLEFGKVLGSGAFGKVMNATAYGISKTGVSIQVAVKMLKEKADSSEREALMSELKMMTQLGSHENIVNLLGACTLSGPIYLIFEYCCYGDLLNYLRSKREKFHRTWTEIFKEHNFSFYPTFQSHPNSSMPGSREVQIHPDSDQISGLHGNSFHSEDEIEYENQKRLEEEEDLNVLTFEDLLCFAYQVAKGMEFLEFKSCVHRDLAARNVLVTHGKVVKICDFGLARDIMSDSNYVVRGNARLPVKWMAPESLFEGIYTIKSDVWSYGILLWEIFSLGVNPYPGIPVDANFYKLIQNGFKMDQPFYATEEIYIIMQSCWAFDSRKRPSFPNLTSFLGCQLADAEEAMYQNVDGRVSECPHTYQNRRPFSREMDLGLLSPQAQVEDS
For assay [3], the target named is Fibroblast growth factor receptor 1 (Homo sapiens) (UniProt P11362). The experiment in a line: Inhibition of human FGFR1 catalytic domain expressed in baculovirus assessed as substrate phosphorylation using fluorescence-labelled peptides as substrate at 0.1 uM after 90 mins by microfluidic peptide phosphorylation assay.
Chain of Fibroblast growth factor receptor 1 (Homo sapiens) (P11362 22-822 limits assumed): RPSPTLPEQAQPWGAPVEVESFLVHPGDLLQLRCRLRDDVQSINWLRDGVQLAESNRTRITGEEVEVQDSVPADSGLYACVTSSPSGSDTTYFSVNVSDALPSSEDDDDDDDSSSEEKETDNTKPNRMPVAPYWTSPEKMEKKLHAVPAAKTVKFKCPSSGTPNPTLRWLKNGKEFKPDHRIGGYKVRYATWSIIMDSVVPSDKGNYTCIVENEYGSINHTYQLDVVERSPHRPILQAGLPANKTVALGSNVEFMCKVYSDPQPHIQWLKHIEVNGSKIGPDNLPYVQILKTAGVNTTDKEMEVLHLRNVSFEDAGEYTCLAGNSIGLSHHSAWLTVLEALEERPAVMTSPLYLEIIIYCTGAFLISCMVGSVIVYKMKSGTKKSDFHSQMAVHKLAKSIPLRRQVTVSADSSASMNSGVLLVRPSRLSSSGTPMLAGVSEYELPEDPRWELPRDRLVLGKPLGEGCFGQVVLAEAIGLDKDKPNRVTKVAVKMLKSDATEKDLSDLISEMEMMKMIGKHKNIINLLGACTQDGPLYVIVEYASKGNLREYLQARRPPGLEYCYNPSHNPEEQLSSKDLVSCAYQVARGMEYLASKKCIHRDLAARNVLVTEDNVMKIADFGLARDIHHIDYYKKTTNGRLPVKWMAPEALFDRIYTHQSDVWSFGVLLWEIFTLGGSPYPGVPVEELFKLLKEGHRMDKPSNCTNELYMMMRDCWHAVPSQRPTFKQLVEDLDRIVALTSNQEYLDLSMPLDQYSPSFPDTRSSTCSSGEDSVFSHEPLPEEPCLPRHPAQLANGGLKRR
In assay [4] the target is MAP kinase-activated protein kinase 2 (Homo sapiens) (UniProt P49137). Put plainly: Inhibition of human full length MAPKAPK2 expressed in baculovirus assessed as substrate phosphorylation using fluorescence-labelled peptides as substrate at 420 uM after 90 mins by microfluidic peptide phosphorylation assay.
Chain of MAP kinase-activated protein kinase 2 (Homo sapiens) (P49137 whole entry, looked up, the tested form may be a part, canonical isoform): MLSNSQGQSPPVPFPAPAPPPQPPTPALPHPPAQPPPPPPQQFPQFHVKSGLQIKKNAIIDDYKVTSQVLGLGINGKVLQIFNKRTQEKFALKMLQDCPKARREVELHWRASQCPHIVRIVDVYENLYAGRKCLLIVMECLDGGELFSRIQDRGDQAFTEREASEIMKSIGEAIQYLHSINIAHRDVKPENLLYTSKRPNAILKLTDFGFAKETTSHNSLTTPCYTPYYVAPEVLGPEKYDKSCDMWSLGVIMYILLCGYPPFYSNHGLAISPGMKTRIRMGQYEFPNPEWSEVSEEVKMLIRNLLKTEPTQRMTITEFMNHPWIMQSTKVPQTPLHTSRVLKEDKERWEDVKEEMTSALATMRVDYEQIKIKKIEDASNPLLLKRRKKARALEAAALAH
Assay [5] addresses Casein kinase I isoform delta (Homo sapiens) (UniProt P48730). Put plainly: Inhibition of human CK1D catalytic domain expressed in Escherichia coli cell assessed as substrate phosphorylation using fluorescence-labelled peptides as substrate at 95 uM after 90 mins by microfluidic peptide phosphorylation assay.
Assay [6] has as its target T1, Serine/threonine-protein kinase D1 (Homo sapiens) (UniProt Q15139).
T1 sequence (whole entry): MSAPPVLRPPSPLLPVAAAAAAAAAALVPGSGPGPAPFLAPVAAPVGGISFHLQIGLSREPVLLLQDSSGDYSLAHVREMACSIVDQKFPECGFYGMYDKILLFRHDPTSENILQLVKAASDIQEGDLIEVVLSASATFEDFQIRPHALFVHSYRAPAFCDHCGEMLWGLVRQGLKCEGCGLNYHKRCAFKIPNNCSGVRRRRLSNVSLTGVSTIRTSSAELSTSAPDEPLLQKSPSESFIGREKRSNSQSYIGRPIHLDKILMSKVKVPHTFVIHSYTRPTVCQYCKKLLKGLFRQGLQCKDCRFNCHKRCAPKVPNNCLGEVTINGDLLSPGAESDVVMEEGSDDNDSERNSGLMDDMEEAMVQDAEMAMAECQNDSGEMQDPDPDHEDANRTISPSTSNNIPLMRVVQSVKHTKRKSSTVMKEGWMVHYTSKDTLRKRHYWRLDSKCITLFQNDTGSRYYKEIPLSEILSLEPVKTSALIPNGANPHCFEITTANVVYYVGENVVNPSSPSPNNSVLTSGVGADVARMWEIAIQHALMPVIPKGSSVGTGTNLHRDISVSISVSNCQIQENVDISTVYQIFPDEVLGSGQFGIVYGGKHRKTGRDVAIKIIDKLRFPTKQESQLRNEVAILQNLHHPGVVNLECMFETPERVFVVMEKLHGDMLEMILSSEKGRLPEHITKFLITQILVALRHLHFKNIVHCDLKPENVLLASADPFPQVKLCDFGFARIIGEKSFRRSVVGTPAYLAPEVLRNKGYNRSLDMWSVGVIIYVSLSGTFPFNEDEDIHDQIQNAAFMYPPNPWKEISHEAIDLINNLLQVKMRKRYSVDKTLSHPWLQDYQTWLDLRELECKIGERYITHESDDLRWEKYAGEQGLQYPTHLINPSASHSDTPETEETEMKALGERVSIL
Put plainly: Inhibition of human full length PKD1 expressed in baculovirus assessed as substrate phosphorylation using fluorescence-labelled peptides as substrate at 95 uM after 90 mins by microfluidic peptide phosphorylation assay.

The target of assay [7] is Calcium/calmodulin-dependent protein kinase type II subunit beta (Homo sapiens) (UniProt Q13554). Put plainly: Inhibition of human CAMK2 beta catalytic domain expressed in baculovirus assessed as substrate phosphorylation using fluorescence-labelled peptides as substrate at 95 uM after 90 mins by microfluidic peptide phosphorylation assay.
The target in assay [8] is Mitogen-activated protein kinase kinase kinase kinase 4 (Homo sapiens) (UniProt O95819). The experiment in a line: Inhibition of human HGK catalytic domain expressed in baculovirus assessed as substrate phosphorylation using fluorescence-labelled peptides as substrate at 9 uM after 90 mins by microfluidic peptide phosphorylation assay.
Chain of Mitogen-activated protein kinase kinase kinase kinase 4 (Homo sapiens) (O95819 2-1239 limits assumed): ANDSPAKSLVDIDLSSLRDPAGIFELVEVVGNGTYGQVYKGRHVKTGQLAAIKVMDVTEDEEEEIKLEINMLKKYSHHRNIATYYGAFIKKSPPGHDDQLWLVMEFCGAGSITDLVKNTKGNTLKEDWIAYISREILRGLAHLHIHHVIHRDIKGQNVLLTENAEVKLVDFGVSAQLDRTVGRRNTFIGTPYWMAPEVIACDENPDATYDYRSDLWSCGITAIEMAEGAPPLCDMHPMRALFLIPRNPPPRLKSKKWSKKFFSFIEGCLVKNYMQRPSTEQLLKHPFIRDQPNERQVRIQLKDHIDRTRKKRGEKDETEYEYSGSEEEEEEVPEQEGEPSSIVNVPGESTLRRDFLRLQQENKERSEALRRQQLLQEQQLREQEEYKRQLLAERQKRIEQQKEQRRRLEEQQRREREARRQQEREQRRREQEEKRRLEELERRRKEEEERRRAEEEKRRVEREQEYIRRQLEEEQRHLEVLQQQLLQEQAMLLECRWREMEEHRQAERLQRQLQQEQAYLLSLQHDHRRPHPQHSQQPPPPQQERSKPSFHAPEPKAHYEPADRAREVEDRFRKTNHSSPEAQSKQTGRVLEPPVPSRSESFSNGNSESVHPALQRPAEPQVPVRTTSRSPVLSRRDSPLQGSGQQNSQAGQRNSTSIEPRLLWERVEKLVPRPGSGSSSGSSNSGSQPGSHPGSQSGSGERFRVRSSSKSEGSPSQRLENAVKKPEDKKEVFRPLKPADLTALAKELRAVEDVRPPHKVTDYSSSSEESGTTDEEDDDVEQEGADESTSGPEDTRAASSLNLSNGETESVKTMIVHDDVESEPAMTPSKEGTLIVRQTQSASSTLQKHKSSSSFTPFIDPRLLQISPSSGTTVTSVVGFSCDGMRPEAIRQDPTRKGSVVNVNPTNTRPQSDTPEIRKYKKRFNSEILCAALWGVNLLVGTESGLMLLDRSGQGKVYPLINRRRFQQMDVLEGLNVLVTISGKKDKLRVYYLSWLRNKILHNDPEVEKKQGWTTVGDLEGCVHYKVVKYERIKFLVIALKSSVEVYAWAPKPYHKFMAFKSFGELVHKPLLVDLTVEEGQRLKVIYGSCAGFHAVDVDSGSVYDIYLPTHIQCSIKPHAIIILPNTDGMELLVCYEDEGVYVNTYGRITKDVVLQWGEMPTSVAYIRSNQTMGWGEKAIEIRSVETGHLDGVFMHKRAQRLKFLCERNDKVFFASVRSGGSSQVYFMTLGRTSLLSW
Assay [9] concerns the target T2, cGMP-dependent protein kinase 1 (Homo sapiens) (UniProt Q13976).
T2 sequence (whole entry): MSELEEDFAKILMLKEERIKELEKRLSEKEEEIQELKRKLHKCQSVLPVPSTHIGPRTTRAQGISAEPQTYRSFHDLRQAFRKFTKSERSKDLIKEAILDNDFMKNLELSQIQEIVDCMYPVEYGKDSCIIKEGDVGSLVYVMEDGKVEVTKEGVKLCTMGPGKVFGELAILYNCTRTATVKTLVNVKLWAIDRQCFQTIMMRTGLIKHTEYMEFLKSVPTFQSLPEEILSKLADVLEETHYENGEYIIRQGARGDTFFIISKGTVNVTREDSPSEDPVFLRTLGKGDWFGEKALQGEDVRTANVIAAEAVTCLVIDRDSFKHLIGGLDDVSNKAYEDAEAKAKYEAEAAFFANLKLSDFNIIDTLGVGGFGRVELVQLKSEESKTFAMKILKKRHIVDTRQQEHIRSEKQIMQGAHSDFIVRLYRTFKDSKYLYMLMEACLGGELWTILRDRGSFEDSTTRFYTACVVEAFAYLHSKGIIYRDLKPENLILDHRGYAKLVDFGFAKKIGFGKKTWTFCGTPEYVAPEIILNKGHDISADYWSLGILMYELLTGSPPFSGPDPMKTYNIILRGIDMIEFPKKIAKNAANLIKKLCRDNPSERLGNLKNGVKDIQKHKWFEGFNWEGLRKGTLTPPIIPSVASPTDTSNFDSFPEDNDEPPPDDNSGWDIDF
The experiment in a line: Inhibition of human full length PKG-1a expressed in baculovirus assessed as substrate phosphorylation using fluorescence-labelled peptides as substrate at 9 uM after 90 mins by microfluidic peptide phosphorylation assay.

Assay [10] deals with Aurora kinase B (Homo sapiens) (UniProt Q96GD4). Put plainly: Inhibition of human full length AurB expressed in baculovirus assessed as substrate phosphorylation using fluorescence-labelled peptides as substrate at 8 uM after 90 mins by microfluidic peptide phosphorylation assay.
Chain of Aurora kinase B (Homo sapiens) (Q96GD4 whole entry, the tested form may be a part): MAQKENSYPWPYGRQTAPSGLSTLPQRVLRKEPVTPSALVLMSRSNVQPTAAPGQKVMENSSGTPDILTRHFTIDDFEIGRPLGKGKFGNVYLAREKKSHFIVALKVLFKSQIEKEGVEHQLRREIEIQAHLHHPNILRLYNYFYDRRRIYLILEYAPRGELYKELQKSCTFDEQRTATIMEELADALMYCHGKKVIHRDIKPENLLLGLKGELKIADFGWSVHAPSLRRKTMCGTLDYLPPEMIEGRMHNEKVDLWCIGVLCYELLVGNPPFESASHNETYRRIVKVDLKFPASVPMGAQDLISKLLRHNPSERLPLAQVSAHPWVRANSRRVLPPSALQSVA
In assay [11] the target is Fibroblast growth factor receptor 3 (Homo sapiens) (UniProt P22607). The experiment in a line: Inhibition of human FGFR3 catalytic domain expressed in baculovirus assessed as substrate phosphorylation using fluorescence-labelled peptides as substrate at 1000 uM after 90 mins by microfluidic peptide phosphorylation assay.
Chain of Fibroblast growth factor receptor 3 (Homo sapiens) (P22607 23-806 limits assumed): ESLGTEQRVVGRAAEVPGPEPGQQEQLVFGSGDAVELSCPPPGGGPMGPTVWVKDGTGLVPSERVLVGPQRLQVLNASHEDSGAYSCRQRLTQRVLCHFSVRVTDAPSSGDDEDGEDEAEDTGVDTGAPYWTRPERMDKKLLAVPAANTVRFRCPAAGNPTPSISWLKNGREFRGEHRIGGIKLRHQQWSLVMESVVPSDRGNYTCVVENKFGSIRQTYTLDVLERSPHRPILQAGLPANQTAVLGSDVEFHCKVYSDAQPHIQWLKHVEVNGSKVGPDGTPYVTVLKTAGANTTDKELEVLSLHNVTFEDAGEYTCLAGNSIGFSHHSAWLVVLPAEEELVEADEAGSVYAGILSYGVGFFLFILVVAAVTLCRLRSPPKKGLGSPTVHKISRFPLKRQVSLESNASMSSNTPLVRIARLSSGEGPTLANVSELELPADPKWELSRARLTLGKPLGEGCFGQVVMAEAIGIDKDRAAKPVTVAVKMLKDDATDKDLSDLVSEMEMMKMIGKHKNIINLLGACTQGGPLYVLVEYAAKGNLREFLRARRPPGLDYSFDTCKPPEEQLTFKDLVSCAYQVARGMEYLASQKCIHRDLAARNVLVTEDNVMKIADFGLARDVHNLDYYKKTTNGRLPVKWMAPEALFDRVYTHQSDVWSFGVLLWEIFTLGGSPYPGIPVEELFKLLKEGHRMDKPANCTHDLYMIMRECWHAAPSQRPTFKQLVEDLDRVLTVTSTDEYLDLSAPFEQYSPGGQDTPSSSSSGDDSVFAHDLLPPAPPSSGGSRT
Assay [12] concerns Tyrosine-protein kinase ABL1 (Homo sapiens), P00519 [H396P]. Put plainly: Inhibition of human truncated ABL H396P mutant expressed in baculovirus assessed as substrate phosphorylation using fluorescence-labelled peptides as substrate at 2 uM after 90 mins by microfluidic peptide phosphorylation assay.
In assay [13] the target is Tyrosine-protein kinase HCK (Homo sapiens) (UniProt P08631). Put plainly: Inhibition of human HCK catalytic domain expressed in baculovirus assessed as substrate phosphorylation using fluorescence-labelled peptides as substrate at 70 uM after 90 mins by microfluidic peptide phosphorylation assay.

Chain of Casein kinase I isoform delta (Homo sapiens) (P48730 whole entry, looked up, the tested form may be a part, canonical isoform): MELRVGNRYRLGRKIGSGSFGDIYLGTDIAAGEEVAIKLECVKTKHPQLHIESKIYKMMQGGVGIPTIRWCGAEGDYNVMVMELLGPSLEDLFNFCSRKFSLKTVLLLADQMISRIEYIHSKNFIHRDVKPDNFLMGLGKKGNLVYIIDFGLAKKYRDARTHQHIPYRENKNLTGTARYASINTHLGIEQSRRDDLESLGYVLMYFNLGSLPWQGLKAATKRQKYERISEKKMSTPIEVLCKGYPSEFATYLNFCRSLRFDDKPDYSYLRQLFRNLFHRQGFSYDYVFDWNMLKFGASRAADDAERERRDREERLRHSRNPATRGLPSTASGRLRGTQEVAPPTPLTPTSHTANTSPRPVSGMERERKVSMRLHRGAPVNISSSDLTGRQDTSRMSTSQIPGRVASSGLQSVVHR

`Clc1ccc(C2(c3ccc(-c4ncnc5[nH]cnc45)cc3)CCNCC2)cc1`: in assay [1], the inhibition (usually how much of the control response was suppressed) amounted to 77.5%.
Turning to `C[C@H](CN(C)C)Oc1nc(Nc2cc3cccc(Cl)c3cn2)cnc1C#N`, the inhibition is 7% in [2] and 2.5% in assay [3].
Regarding `c1nc(N2CCOCC2)c2nc[nH]c2n1`, in assay [4], the inhibition is 74%.
With `NCCc1ccc(-c2ncnc3[nH]cnc23)cc1`, the inhibition was determined as 77.5% in assay [5], 44% in assay [6] and 2% in [7].
With `NCC1CN(c2ncnc3[nH]c4cnccc4c23)CCO1` (stereo not drawn), the results for the inhibition in assay [8] and in assay [9] were 54.5% and 15.5%, respectively.
With `NCC1CCN(c2ncnc3[nH]ccc23)CC1`, the inhibition in assay [10] stood at 76%.
`c1cnc2[nH]ccc2c1`: the inhibition in assay [11] worked out at 63.5%.
Take `NC1CCN(c2ncnc3[nH]ccc23)CC1`: the inhibition in assay [12] was determined as 2.5%.
`CNCc1ccc(-c2ncnc3[nH]cnc23)cc1`: the inhibition in assay [13] is 18.5%.

The values above are taken from ChEMBL document CHEMBL3132769, “Fragment growing to retain or alter the selectivity of anchored kinase hinge-binding fragments” (Medchemcomm, 2014).
